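At the GI50, growth is halved. At the TGI there is no net growth.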
Tests used:
Experiment in all cases: NCI-60 cell line screen, 384-well format
786-0 renal = test system: 786-0 renal
A498 renal = test system: A498 renal
A549 NSCLC = test system: A549 NSCLC
ACHN renal = test system: ACHN renal
CAKI-1 renal = test system: CAKI-1 renal
CCRF-CEM leukemia = test system: CCRF-CEM leukemia
COLO 205 colon = test system: COLO 205 colon
DU-145 prostate = test system: DU-145 prostate
EKVX NSCLC = test system: EKVX NSCLC
HCC-2998 colon = test system: HCC-2998 colon
HCT-116 colon = test system: HCT-116 colon
HCT-15 colon = test system: HCT-15 colon
HL-60(TB) leukemia = test system: HL-60(TB) leukemia
HOP-62 NSCLC = test system: HOP-62 NSCLC
HOP-92 NSCLC = test system: HOP-92 NSCLC
HS 578T breast = test system: HS 578T breast
HT29 colon = test system: HT29 colon
IGROV1 ovarian = test system: IGROV1 ovarian
K-562 leukemia = test system: K-562 leukemia
KM12 colon = test system: KM12 colon
LOX IMVI melanoma = test system: LOX IMVI melanoma
M14 melanoma = test system: M14 melanoma
MALME-3M melanoma = test system: MALME-3M melanoma
MCF7 breast = test system: MCF7 breast
MDA-MB-231 breast = test system: MDA-MB-231 breast
MDA-MB-435 melanoma = test system: MDA-MB-435 melanoma
MDA-MB-468 breast = test system: MDA-MB-468 breast
MOLT-4 leukemia = test system: MOLT-4 leukemia
NCI-H226 lung = test system: NCI-H226 lung
NCI-H23 lung = test system: NCI-H23 lung
NCI-H322M lung = test system: NCI-H322M lung
NCI-H460 NSCLC = test system: NCI-H460 NSCLC
NCI-H522 lung = test system: NCI-H522 lung
NCI/ADR-RES ovarian = test system: NCI/ADR-RES ovarian
OVCAR-3 ovarian = test system: OVCAR-3 ovarian
OVCAR-4 ovarian = test system: OVCAR-4 ovarian
OVCAR-5 ovarian = test system: OVCAR-5 ovarian
OVCAR-8 ovarian = test system: OVCAR-8 ovarian
PC-3 prostate = test system: PC-3 prostate
RPMI-8226 leukemia = test system: RPMI-8226 leukemia
RXF 393 renal = test system: RXF 393 renal
SF-268 CNS = test system: SF-268 CNS
SF-295 CNS = test system: SF-295 CNS
SF-539 CNS = test system: SF-539 CNS
SK-MEL-2 melanoma = test system: SK-MEL-2 melanoma
SK-MEL-28 melanoma = test system: SK-MEL-28 melanoma
SK-MEL-5 melanoma = test system: SK-MEL-5 melanoma
SK-OV-3 ovarian = test system: SK-OV-3 ovarian
SN12C renal = test system: SN12C renal
SNB-19 CNS = test system: SNB-19 CNS
SNB-75 CNS = test system: SNB-75 CNS
SR leukemia = test system: SR leukemia
SW-620 colon = test system: SW-620 colon
T-47D breast = test system: T-47D breast
TK-10 renal = test system: TK-10 renal
U251 glioblastoma = test system: U251 glioblastoma
UACC-62 melanoma = test system: UACC-62 melanoma
UO-31 renal = test system: UO-31 renal

Cc1ccc(C(=O)N(CCCN)[C@@H](c2nc3cc(Cl)ccc3c(=O)n2Cc2ccccc2)C(C)C)cc1
GI50 ([…]-0 renal): < 10 nM | TGI (786-0 renal): 1420 nM | GI50 (A498 renal): < 10 nM | TGI (A498 renal): 1810 nM | GI50 (A549 NSCLC): < 10 nM | TGI (A549 NSCLC): 1800 nM | GI50 (ACHN renal): 1140 nM | TGI (ACHN renal): 2370 nM | GI50 (CAKI-1 renal): < 10 nM | TGI (CAKI-1 renal): 1920 nM | GI50 (CCRF-CEM leukemia): < 10 nM | TGI (CCRF-CEM leukemia): < 10 nM | GI50 (COLO 205 colon): < 10 nM | TGI (COLO 205 colon): < 10 nM | GI50 (DU-145 prostate): < 10 nM | TGI (DU-145 prostate): < 10 nM | GI50 (EKVX NSCLC): < 10 nM | TGI (EKVX NSCLC): 1220 nM | GI50 (HCC-2998 colon): < 10 nM | TGI (HCC-2998 colon): 112 nM | GI50 (HCT-116 colon): < 10 nM | TGI (HCT-116 colon): 1200 nM | GI50 (HCT-15 colon): < 10 nM | TGI (HCT-15 colon): 1280 nM | GI50 (HL-60(TB) leukemia): < 10 nM | TGI (HL-60(TB) leukemia): < 10 nM | GI50 (HOP-62 NSCLC): < 10 nM | TGI (HOP-62 NSCLC): 1950 nM | GI50 (HOP-92 NSCLC): < 10 nM | TGI (HOP-92 NSCLC): 1700 nM | GI50 (HS 578T breast): < 10 nM | TGI (HS 578T breast): < 10 nM | GI50 (HT29 colon): < 10 nM | TGI (HT29 colon): 1000 nM | GI50 (IGROV1 ovarian): 1100 nM | TGI (IGROV1 ovarian): 2320 nM | GI50 (K-562 leukemia): < 10 nM | TGI (K-562 leukemia): < 10 nM | GI50 (KM12 colon): < 10 nM | TGI (KM12 colon): 927 nM | GI50 (LOX IMVI melanoma): < 10 nM | TGI (LOX IMVI melanoma): 1530 nM | GI50 (M14 melanoma): < 10 nM | TGI (M14 melanoma): < 10 nM | GI50 (MALME-3M melanoma): < 10 nM | TGI (MALME-3M melanoma): 1890 nM | GI50 (MCF7 breast): < 10 nM | TGI (MCF7 breast): 1270 nM | GI50 (MDA-MB-231 breast): < 10 nM | TGI (MDA-MB-231 breast): 1780 nM | GI50 (MDA-MB-435 melanoma): < 10 nM | TGI (MDA-MB-435 melanoma): < 10 nM | GI50 (MDA-MB-468 breast): < 10 nM | TGI (MDA-MB-468 breast): < 10 nM | GI50 (MOLT-4 leukemia): < 10 nM | TGI (MOLT-4 leukemia): < 10 nM | GI50 (NCI-H226 lung): 1120 nM | TGI (NCI-H226 lung): 2340 nM | GI50 (NCI-H23 lung): < 10 nM | TGI (NCI-H23 lung): 1080 nM | GI50 (NCI-H322M lung): < 10 nM | TGI (NCI-H322M lung): 1730 nM | GI50 (NCI-H460 NSCLC): < 10 nM | TGI (NCI-H460 NSCLC): < 10 nM | GI50 (NCI-H522 lung): < 10 nM | TGI (NCI-H522 lung): < 10 nM | GI50 (NCI/ADR-RES ovarian): 109 nM | TGI (NCI/ADR-RES ovarian): 263 nM | GI50 (OVCAR-3 ovarian): < 10 nM | TGI (OVCAR-3 ovarian): < 10 nM | GI50 (OVCAR-4 ovarian): < 10 nM | TGI (OVCAR-4 ovarian): 1890 nM | GI50 (OVCAR-5 ovarian): < 10 nM | TGI (OVCAR-5 ovarian): 1250 nM | GI50 (OVCAR-8 ovarian): < 10 nM | TGI (OVCAR-8 ovarian): 1200 nM | GI50 (PC-3 prostate): < 10 nM | TGI (PC-3 prostate): 1620 nM | GI50 (RPMI-8226 leukemia): < 10 nM | TGI (RPMI-8226 leukemia): < 10 nM | GI50 (RXF 393 renal): < 10 nM | TGI (RXF 393 renal): < 10 nM | GI50 (SF-268 CNS): < 10 nM | TGI (SF-268 CNS): 1650 nM | GI50 (SF-295 CNS): < 10 nM | TGI (SF-295 CNS): < 10 nM | GI50 (SF-539 CNS): < 10 nM | TGI (SF-539 CNS): 20.2 nM | GI50 (SK-MEL-2 melanoma): < 10 nM | TGI (SK-MEL-2 melanoma): < 10 nM | GI50 (SK-MEL-28 melanoma): 1350 nM | TGI (SK-MEL-28 melanoma): 2640 nM | GI50 (SK-MEL-5 melanoma): < 10 nM | TGI (SK-MEL-5 melanoma): 14.7 nM | GI50 (SK-OV-3 ovarian): < 10 nM | TGI (SK-OV-3 ovarian): 1540 nM | GI50 (SN12C renal): < 10 nM | TGI (SN12C renal): 1790 nM | GI50 (SNB-19 CNS): < 10 nM | TGI (SNB-19 CNS): 1740 nM | GI50 (SNB-75 CNS): < 10 nM | TGI (SNB-75 CNS): 1950 nM | GI50 (SR leukemia): < 10 nM | TGI (SR leukemia): < 10 nM | GI50 (SW-620 colon): < 10 nM | TGI (SW-620 colon): 1060 nM | GI50 (T-47D breast): < 10 nM | TGI (T-47D breast): 1300 nM | GI50 (TK-10 renal): 94.9 nM | TGI (TK-10 renal): 2070 nM | GI50 (U251 glioblastoma): < 10 nM | TGI (U251 glioblastoma): 1430 nM | GI50 (UACC-62 melanoma): < 10 nM | TGI (UACC-62 melanoma): 1400 nM | GI50 (UO-31 renal): 1080 nM | TGI (UO-31 renal): 2290 nM

Source: PubChem BioAssay (NCI)
